# In PubChem BioAssay (NCI):
#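 Method: 48-hour compound exposure of cells in 96-well plates, five concentrations, linear interpolation of endpoints. At the TGI there is no net growth.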
# How the values were obtained:
# Assay in all cases: NCI-60 cell line screen, 48 h
# OVCAR-3 ovarian = tested on: OVCAR-3 ovarian
# CAKI-1 renal = tested on: CAKI-1 renal
# OVCAR-8 ovarian = tested on: OVCAR-8 ovarian
# NCI-H226 lung = tested on: NCI-H226 lung
# SK-OV-3 ovarian = tested on: SK-OV-3 ovarian
# UACC-257 melanoma = tested on: UACC-257 melanoma
# UO-31 renal = tested on: UO-31 renal
# TK-10 renal = tested on: TK-10 renal
# KM12 colon = tested on: KM12 colon
# U251 CNS = tested on: U251 CNS
# A549 NSCLC = tested on: A549 NSCLC
# DLD-1 colon = tested on: DLD-1 colon
# NCI-H23 lung = tested on: NCI-H23 lung
# SF-539 CNS = tested on: SF-539 CNS
# M14 melanoma = tested on: M14 melanoma
# SN12C renal = tested on: SN12C renal
# SF-295 CNS = tested on: SF-295 CNS
# SK-MEL-28 melanoma = tested on: SK-MEL-28 melanoma
# SF-268 CNS = tested on: SF-268 CNS
# HL-60(TB) leukemia = tested on: HL-60(TB) leukemia
# HOP-92 NSCLC = tested on: HOP-92 NSCLC
# SK-MEL-5 melanoma = tested on: SK-MEL-5 melanoma
# SNB-75 CNS = tested on: SNB-75 CNS
# EKVX NSCLC = tested on: EKVX NSCLC
# RPMI-8226 leukemia = tested on: RPMI-8226 leukemia
# M19-MEL melanoma = tested on: M19-MEL melanoma
# MALME-3M melanoma = tested on: MALME-3M melanoma
# LXFL 529 NSCLC = tested on: LXFL 529 NSCLC
# COLO 205 colon = tested on: COLO 205 colon
# HCT-15 colon = tested on: HCT-15 colon
# MOLT-4 leukemia = tested on: MOLT-4 leukemia
# DMS 273 small cell lung = tested on: DMS 273 small cell lung
# DMS 114 small cell lung = tested on: DMS 114 small cell lung
# 786-0 renal = tested on: 786-0 renal
# HOP-62 NSCLC = tested on: HOP-62 NSCLC
# SNB-78 CNS = tested on: SNB-78 CNS
# K-562 leukemia = tested on: K-562 leukemia
# SNB-19 CNS = tested on: SNB-19 CNS
# NCI-H460 lung = tested on: NCI-H460 lung
# HT29 colon = tested on: HT29 colon
# NCI-H522 lung = tested on: NCI-H522 lung
# OVCAR-5 ovarian = tested on: OVCAR-5 ovarian
# HCC-2998 colon = tested on: HCC-2998 colon
# CCRF-CEM leukemia = tested on: CCRF-CEM leukemia
# SK-MEL-2 melanoma = tested on: SK-MEL-2 melanoma
# HOP-18 NSCLC = tested on: HOP-18 NSCLC
# IGROV1 ovarian = tested on: IGROV1 ovarian
# HCT-116 colon = tested on: HCT-116 colon
# ACHN renal = tested on: ACHN renal
# SW-620 colon = tested on: SW-620 colon
# KM20L2 colon = tested on: KM20L2 colon
# UACC-62 melanoma = tested on: UACC-62 melanoma
# OVCAR-4 ovarian = tested on: OVCAR-4 ovarian
# LOX IMVI melanoma = tested on: LOX IMVI melanoma
# A498 renal = tested on: A498 renal
# RXF 393 renal = tested on: RXF 393 renal
compound,measurement,setting,value
Cn1c2ccccc2c2ccc3c(c21)C(=O)C(c1ccccc1)=CC3=O,TGI,OVCAR-3 ovarian,79.2 µM
same,TGI,CAKI-1 renal,> 100 µM
same,TGI,OVCAR-8 ovarian,42.6 µM
same,TGI,NCI-H226 lung,40.7 µM
same,TGI,SK-OV-3 ovarian,> 100 µM
same,TGI,UACC-257 melanoma,> 100 µM
same,TGI,UO-31 renal,> 100 µM
same,TGI,TK-10 renal,> 100 µM
same,TGI,KM12 colon,> 100 µM
same,TGI,U251 CNS,> 100 µM
same,TGI,A549 NSCLC,> 100 µM
same,TGI,DLD-1 colon,64.6 µM
same,TGI,NCI-H23 lung,> 100 µM
same,TGI,SF-539 CNS,47.2 µM
same,TGI,M14 melanoma,> 100 µM
same,TGI,SN12C renal,52.3 µM
same,TGI,SF-295 CNS,> 100 µM
same,TGI,SK-MEL-28 melanoma,51 µM
same,TGI,SF-268 CNS,> 100 µM
same,TGI,HL-60(TB) leukemia,> 100 µM
same,TGI,HOP-92 NSCLC,56.2 µM
same,TGI,SK-MEL-5 melanoma,87.5 µM
same,TGI,SNB-75 CNS,> 100 µM
same,TGI,EKVX NSCLC,75.2 µM
same,TGI,RPMI-8226 leukemia,99.2 µM
same,TGI,M19-MEL melanoma,59.9 µM
same,TGI,MALME-3M melanoma,84.4 µM
same,TGI,LXFL 529 NSCLC,33.5 µM
same,TGI,COLO 205 colon,> 100 µM
same,TGI,HCT-15 colon,22.2 µM
same,TGI,MOLT-4 leukemia,> 100 µM
same,TGI,DMS 273 small cell lung,84 µM
same,TGI,DMS 114 small cell lung,43.2 µM
same,TGI,786-0 renal,32.8 µM
same,TGI,HOP-62 NSCLC,> 100 µM
same,TGI,SNB-78 CNS,> 100 µM
same,TGI,K-562 leukemia,> 100 µM
same,TGI,SNB-19 CNS,> 100 µM
same,TGI,NCI-H460 lung,> 100 µM
same,TGI,HT29 colon,> 100 µM
same,TGI,NCI-H522 lung,40.2 µM
same,TGI,OVCAR-5 ovarian,> 100 µM
same,TGI,HCC-2998 colon,56.4 µM
same,TGI,CCRF-CEM leukemia,> 100 µM
same,TGI,SK-MEL-2 melanoma,45.3 µM
same,TGI,HOP-18 NSCLC,5.51 µM
same,TGI,IGROV1 ovarian,39.3 µM
same,TGI,HCT-116 colon,38.2 µM
same,TGI,ACHN renal,> 100 µM
COC(=O)c1c(-c2cc(OC)c(OC)c(OC)c2)oc2ccccc2c1=O,TGI,OVCAR-3 ovarian,> 100 µM
same,TGI,CAKI-1 renal,> 100 µM
same,TGI,OVCAR-8 ovarian,> 100 µM
same,TGI,NCI-H226 lung,> 100 µM
same,TGI,SW-620 colon,> 100 µM
same,TGI,SK-OV-3 ovarian,> 100 µM
same,TGI,KM20L2 colon,> 100 µM
same,TGI,UACC-257 melanoma,> 100 µM
same,TGI,UO-31 renal,> 100 µM
same,TGI,TK-10 renal,> 100 µM
same,TGI,KM12 colon,> 100 µM
same,TGI,U251 CNS,> 100 µM
same,TGI,A549 NSCLC,> 100 µM
same,TGI,DLD-1 colon,> 100 µM
same,TGI,NCI-H23 lung,> 100 µM
same,TGI,SF-539 CNS,> 100 µM
same,TGI,M14 melanoma,> 100 µM
same,TGI,SN12C renal,> 100 µM
same,TGI,SF-295 CNS,> 100 µM
same,TGI,UACC-62 melanoma,> 100 µM
same,TGI,OVCAR-4 ovarian,> 100 µM
same,TGI,HL-60(TB) leukemia,> 100 µM
same,TGI,HOP-92 NSCLC,> 100 µM
same,TGI,SK-MEL-5 melanoma,> 100 µM
same,TGI,SNB-75 CNS,> 100 µM
same,TGI,EKVX NSCLC,> 100 µM
same,TGI,RPMI-8226 leukemia,> 100 µM
same,TGI,M19-MEL melanoma,> 100 µM
same,TGI,MALME-3M melanoma,> 100 µM
same,TGI,LXFL 529 NSCLC,> 100 µM
same,TGI,COLO 205 colon,> 100 µM
same,TGI,HCT-15 colon,> 100 µM
same,TGI,MOLT-4 leukemia,> 100 µM
same,TGI,DMS 273 small cell lung,> 100 µM
same,TGI,LOX IMVI melanoma,> 100 µM
same,TGI,786-0 renal,> 100 µM
same,TGI,HOP-62 NSCLC,> 100 µM
same,TGI,SNB-78 CNS,> 100 µM
same,TGI,K-562 leukemia,> 100 µM
same,TGI,SNB-19 CNS,> 100 µM
same,TGI,NCI-H460 lung,> 100 µM
same,TGI,HT29 colon,> 100 µM
same,TGI,A498 renal,> 100 µM
same,TGI,NCI-H522 lung,> 100 µM
same,TGI,RXF 393 renal,> 100 µM
same,TGI,OVCAR-5 ovarian,> 100 µM
same,TGI,HCC-2998 colon,> 100 µM
same,TGI,CCRF-CEM leukemia,> 100 µM
same,TGI,SK-MEL-2 melanoma,> 100 µM
same,TGI,HOP-18 NSCLC,> 100 µM
same,TGI,IGROV1 ovarian,> 100 µM
same,TGI,HCT-116 colon,> 100 µM
same,TGI,ACHN renal,> 100 µM
